From ChEMBL document CHEMBL3044534, “Antitumor and antileishmanial evaluation of novel heterocycles derived from quinazoline scaffold: a molecular modeling approach” (2013)

How the values were obtained:
Assay type in all cases: functional
[1] = system: NCI-H460; test: Growth inhibition of Homo sapiens (human) NCI-H460 cells after 48 hr by SRB assay; details: NCI-H460, 48 h
[2] = system: MCF7; test: Growth inhibition of Homo sapiens (human) MCF7 cells after 48 hr by SRB assay; details: MCF7, 48 h
[3] = system: SF-268; test: Growth inhibition of Homo sapiens (human) SF268 cells after 48 hr by SRB assay; details: SF-268, 48 h
[4] = system: Leishmania donovani; test: Antileishmanial activity against axenic amastigotes of Leishmania donovani assessed as growth inhibition at 50 uM; details: read-out: GI
[5] = system: Leishmania donovani; test: Antileishmanial activity against axenic amastigotes of Leishmania donovani assessed as growth inhibition
[6] = system: Leishmania donovani; test: Antileishmanial activity against axenic amastigotes of Leishmania donovani assessed as growth inhibition at 1 uM; details: read-out: GI

| SMILES | GI50 [1] | GI50 [2] | GI50 [3] | inhibition of growth at 50 µM [4] | GI50 [5] | inhibition of growth at 1 µM [6] |
| --- | --- | --- | --- | --- | --- | --- |
| Cc1nc2ccccc2c(=O)n1NC(=O)CCl | 23.2 µM | 50.1 µM | 18.4 µM | 60% | – | – |
| Cc1nc2ccccc2c(=O)n1NC(=S)Nc1ccccc1 | 78.6 µM | 64.9 µM | 56.8 µM | 98% | 12 µM | – |
| Cc1nc2ccccc2c(=O)n1-n1c(C)cc(=O)n(-c2ccccc2)c1=S | 43.6 µM | 22.9 µM | 36.8 µM | 66% | 12 µM | – |
| Cc1nc2ccccc2c(=O)n1NC(=O)/C(Cl)=C/c1ccccc1 | 0.02 µM | 0.03 µM | 0.05 µM | 80% | 26 µM | – |
| COc1ccc(/C=C(\Cl)C(=O)Nn2c(C)nc3ccccc3c2=O)cc1 | 0.6 µM | 0.9 µM | 0.8 µM | 84% | 28 µM | – |
| Cc1nc2ccccc2c(=O)n1NC(=O)/C(Cl)=C/c1ccc(Cl)cc1 | 38.9 µM | 70.6 µM | 50.8 µM | 50% | 18 µM | – |
| Cc1nc2ccccc2c(=O)n1NC1=CSC(=C(C#N)C#N)N1c1ccccc1 | 32.6 µM | 40.6 µM | 60.4 µM | 44% | 18 µM | – |
| Cc1nc2ccccc2c(=O)n1NC(=O)C1Nc2ccccc2C1=O (centres undefined) | 14.1 µM | 11.9 µM | 20.3 µM | 92% | 13 µM | – |
| CC1=CC(C)N(c2ccccc2)C(=S)N1n1c(C)nc2ccccc2c1=O (centres undefined) | 0.2 µM | 0.7 µM | 0.03 µM | 48% | – | – |
| Cc1nc2ccccc2c(=O)n1/N=C1\SCC(=O)N1c1ccccc1 | 30.6 µM | 22 µM | 38.4 µM | 44% | 12 µM | – |
| Cc1nc2ccccc2c(=O)n1/N=c1\scc(N)n1-c1ccccc1 | 28 µM | 36 µM | 22.5 µM | 96% | 10 µM | – |
| CCOC(=O)CNn1c(C)nc2ccccc2c1=O | 22.6 µM | 20.9 µM | 26.8 µM | 44% | 10 µM | – |
| Cc1nc2ccccc2c(=O)n1NCC(=O)NN | 14.5 µM | 11.8 µM | 16.7 µM | 58% | 22 µM | – |
| Cc1nc2ccccc2c(=O)n1NCC(=O)NNc1ccccc1 | 12.9 µM | 22.6 µM | 24.8 µM | 22% | 28 µM | – |
| Cc1nc2ccccc2c(=O)n1Nc1cc2ccccc2oc1=O | 17.3 µM | 32 µM | 22.3 µM | 70% | – | – |
| Cc1nc2ccccc2c(=O)n1NCc1nc2ccccc2[nH]1 | 22 µM | 20 µM | 31.5 µM | 85% | – | – |
| CCOC(=O)c1c(N)cc(N)n1-n1c(C)nc2ccccc2c1=O | 0.1 µM | 0.4 µM | 0.9 µM | 40% | – | – |
| CCOC(=O)c1c(N)cc(O)n1-n1c(C)nc2ccccc2c1=O | 0.9 µM | 13.1 µM | 11.5 µM | 60% | 18 µM | – |
| Cc1nc2ccccc2c(=O)n1Nc1csc(N)n1 | 0.2 µM | 0.01 µM | 0.4 µM | 72% | 22 µM | – |
| Cc1nc2ccccc2c(=O)n1NC(=O)c1cc2ccccc2o1 | 12.1 µM | 10.9 µM | 22.3 µM | 28% | 14 µM | – |
| C[C@@H]1[C@H](O)[C@@H](C)/C=C/C=C/C=C/C=C/C=C/C=C/C=C/[C@H](O[C@@H]2O[C@H](C)[C@@H](O)[C@H](N)[C@@H]2O)C[C@@H]2O[C@](O)(C[C@@H](O)C[C@@H](O)[C@H](O)CC[C@@H](O)C[C@@H](O)CC(=O)O[C@H]1C)C[C@H](O)[C@H]2C(=O)O [AMPHOTERICIN B] | – | – | – | – | – | 98% |
| COc1cccc2c1C(=O)c1c(O)c3c(c(O)c1C2=O)C[C@@](O)(C(=O)CO)C[C@@H]3O[C@H]1C[C@H](N)[C@H](O)[C@H](C)O1 [DOXORUBICIN] | 0.09 µM | 0.04 µM | 0.09 µM | – | – | – |
